In the NIST ThermoML archive (doi:10.1016/j.jct.2014.03.023):
± gives the expanded uncertainty stated by the source.

How the values were obtained:
[1] = Pendant drop shape
[2] = molar heat capacity at constant pressure; conditions: 101 kPa, Liquid, Small sample (50 mg) DSC
[3] = wn = mass fraction of the nth substance listed; conditions: Pendant drop shape, w1 = 1

CC[n+]1ccc(C)cc1.O=S(=O)([N-]S(=O)(=O)C(F)(F)F)C(F)(F)F
Conditions	molar heat capacity at constant pressure [J/K/mol]	surface tension liquid-gas [mN/m]
[1], 298.2 K	–	24.3 ± 0.4
[1], 303.2 K	–	23.9 ± 0.4
[1], 313.2 K	–	23.1 ± 0.4
[1], 323.2 K	–	22.2 ± 0.4
[2], 296.2 K	627 ± 27	–
[2], 300.2 K	634 ± 27	–
[2], 304.2 K	637 ± 27	–
[2], 308.2 K	640 ± 27	–
[2], 312.2 K	644 ± 27	–
[2], 316.2 K	647 ± 27	–
[2], 320.2 K	649 ± 28	–
[2], 324.2 K	652 ± 28	–
[2], 328.2 K	655 ± 28	–
[2], 332.2 K	659 ± 28	–
[2], 336.2 K	665 ± 28	–
[2], 340.2 K	669 ± 28	–
[2], 344.2 K	674 ± 29	–
[2], 348.2 K	679 ± 29	–
[2], 352.2 K	685 ± 29	–
[2], 356.2 K	691 ± 29	–
[2], 360.2 K	697 ± 30	–
[2], 364.2 K	703 ± 30	–
[2], 368.2 K	708 ± 30	–
[2], 372.2 K	715 ± 30	–

CCn1cc[n+](C)c1.N#CN=C=[N-] [1-ethyl-3-methylimidazolium dicyanamide]
[1]
Conditions	surface tension liquid-gas [mN/m]
298.2 K	56.4 ± 0.9
303.2 K	56 ± 0.9
313.2 K	54.8 ± 0.9
323.2 K	53.5 ± 0.8

CCn1cc[n+](C)c1.N#CN=C=[N-] [1-ethyl-3-methylimidazolium dicyanamide] + CC[n+]1ccc(C)cc1.O=S(=O)([N-]S(=O)(=O)C(F)(F)F)C(F)(F)F
[3]
Conditions	surface tension liquid-gas [mN/m]
298.2 K	56.4 ± 0.9
303.2 K	56 ± 0.9
313.2 K	54.8 ± 0.9
323.2 K	53.5 ± 0.8
